Source: US20250179103A1, “6-OXODECAHYDROPYRROLO[1,2-A][1,5]DIAZOCINE AND 6-OXODECAHYDRO-4H-PYRROLO[2,1-D][1,5]THIAZOCINE DERIVATIVES AS STAT3 AND STAT6 MODULATORS FOR THE TREATMENT OF CANCER AND INFLAMMATORY CONDITIONS” (Recludix Pharma, Inc., priority 2022, published 2025)

Assays:
[1] = target: T1, Recombinant STAT6 protein (STAT6(W123-T658)) (Homo sapiens, UniProt P42226); assay: STAT6 Fluorescence Polarization (FP) Assay; assay type: binding; settings: STAT6(W123-T658) 250 nM, probe 5-FAM-ApYKPFQDLI-NH2 2 nM, 45-minute incubation
T1 construct: Recombinant STAT6 protein (STAT6(W123-T658))
T1 sequence (P42226 123-658): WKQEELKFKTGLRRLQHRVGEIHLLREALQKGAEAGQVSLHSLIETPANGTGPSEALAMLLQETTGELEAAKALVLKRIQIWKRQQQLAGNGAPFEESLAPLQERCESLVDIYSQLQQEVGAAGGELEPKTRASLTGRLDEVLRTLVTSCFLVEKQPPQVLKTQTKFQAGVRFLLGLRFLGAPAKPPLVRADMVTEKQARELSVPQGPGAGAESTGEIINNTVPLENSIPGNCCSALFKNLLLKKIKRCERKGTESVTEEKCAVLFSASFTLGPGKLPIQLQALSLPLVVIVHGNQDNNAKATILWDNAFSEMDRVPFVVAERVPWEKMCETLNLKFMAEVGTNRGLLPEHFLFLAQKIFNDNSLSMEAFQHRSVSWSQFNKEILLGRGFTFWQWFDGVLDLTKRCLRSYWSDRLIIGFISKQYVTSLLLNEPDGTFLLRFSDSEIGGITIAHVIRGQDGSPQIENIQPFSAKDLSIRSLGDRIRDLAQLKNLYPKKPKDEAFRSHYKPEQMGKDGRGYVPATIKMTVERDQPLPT
How it was run: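 Displacement of a fluorescent phosphotyrosine peptide (5-FAM-ApYKPFQDLI-NH2, 2 nM) from STAT6(W123-T658) (250 nM), 1% DMSO, pH 7.4 HEPES buffer. After 45 min at room temperature, polarization (mP) was plotted versus log compound concentration and fitted by nonlinear regression to give IC50.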

[2] = target: T2, Recombinant STAT3 protein (STAT3(G127-I722)) (Homo sapiens, UniProt P40763); assay: STAT3 Fluorescence Polarization (FP) Assay; assay type: binding; settings: STAT3(G127-I722) 25 nM, probe 5-FAM-GpYLPQTV-NH2 2 nM, 45-minute incubation
T2 construct: Recombinant STAT3 protein (STAT3(G127-I722))
T2 sequence (P40763 127-722): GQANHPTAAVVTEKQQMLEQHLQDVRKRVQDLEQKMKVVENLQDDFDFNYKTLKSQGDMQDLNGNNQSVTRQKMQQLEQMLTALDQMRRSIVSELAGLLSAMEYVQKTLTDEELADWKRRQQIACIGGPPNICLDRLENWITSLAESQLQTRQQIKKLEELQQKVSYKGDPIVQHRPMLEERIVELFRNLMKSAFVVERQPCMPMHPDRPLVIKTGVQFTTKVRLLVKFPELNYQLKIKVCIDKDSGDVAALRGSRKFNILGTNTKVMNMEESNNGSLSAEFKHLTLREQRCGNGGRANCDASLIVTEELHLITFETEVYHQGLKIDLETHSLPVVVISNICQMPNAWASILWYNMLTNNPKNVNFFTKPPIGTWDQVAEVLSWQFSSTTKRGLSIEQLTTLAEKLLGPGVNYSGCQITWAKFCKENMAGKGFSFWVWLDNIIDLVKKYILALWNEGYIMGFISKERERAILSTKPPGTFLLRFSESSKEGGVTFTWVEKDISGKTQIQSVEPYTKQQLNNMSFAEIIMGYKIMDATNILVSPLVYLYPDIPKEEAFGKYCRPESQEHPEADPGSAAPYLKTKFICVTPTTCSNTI
How it was run: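 STAT3(G127-I722), 25 nM, was mixed with 2 nM 5-FAM-GpYLPQTV-NH2 probe in HEPES pH 7.4 buffer with 1% DMSO and serially diluted compound. FP (mP) was read after 45 min at room temperature. IC50 came from nonlinear regression.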

| IC50 [1] | IC50 [2] | SMILES |
| --- | --- | --- |
| 300 to 3000 nM | 100 to 1000 nM | CC(=O)N1CC[C@H]2CC[C@@H](C(=O)N3CCC(Oc4ccncc4)C3)N2C(=O)[C@@H](NC(=O)c2cc3cc(C(F)(F)P(=O)(O)O)ccc3s2)C1 (stereo partly drawn) [Compound 95, ((1-(((5S,8S,10aR)-3-acetyl-6-oxo-8-(3-(pyridin-4-yloxy)pyrrolidine-1-carbonyl)decahydropyrrolo[1,2-a][1,5]diazocin-5-yl)carbamoyl)benzo[b]thiophen-5-yl)difluoromethyl)phosphonic acid] |
| ≤ 300 nM | 1000 to 10000 nM | CC(=O)N1CC[C@H]2CC[C@@H](C(=O)N(C)c3ccc(-c4ccccc4)cc3)N2C(=O)[C@@H](NC(=O)c2cc3cc(C(F)(F)P(=O)(O)O)ccc3s2)C1 [Compound 96, ((2-(((5S,8S,10aR)-8-([1,1′-biphenyl]-4-yl(methyl)carbamoyl)-3-acetyl-6-oxodecahydropyrrolo[1,2-a][1,5]diazocin-5-yl)carbamoyl)benzo[b]thiophen-5-yl)difluoromethyl)phosphonic acid] |
| ≤ 300 nM | 100 to 1000 nM | CC(=O)N1CC[C@H]2CC[C@@H](C(=O)N3CC[C@@H](c4ccccc4)C3)N2C(=O)[C@@H](NC(=O)c2cc3cc(C(F)(F)P(=O)(O)O)ccc3s2)C1 [Compound 97, ((2-(((5S,8S,10aR)-3-acetyl-6-oxo-8-((S)-3-phenylpyrrolidine-1-carbonyl)decahydropyrrolo[1,2-a][1,5]diazocin-5-yl)carbamoyl)benzo[b]thiophen-5-yl)difluoromethyl)phosphonic acid] |
| 300 to 3000 nM | 100 to 1000 nM | CC(=O)N1CC[C@H]2CC[C@@H](C(=O)N3CC(Oc4ccccc4)C3)N2C(=O)[C@@H](NC(=O)c2cc3cc(C(F)(F)P(=O)(O)O)ccc3[nH]2)C1 [Compound 99, ((2-(((5S,8S,10aR)-3-acetyl-6-oxo-8-(3-phenoxyazetidine-1-carbonyl)decahydropyrrolo[1,2-a][1,5]diazocin-5-yl)carbamoyl)-1H-indol-5-yl)difluoromethyl)phosphonic acid] |
| 300 to 3000 nM | 100 to 1000 nM | CC(=O)N1CC[C@H]2CC[C@@H](C(=O)N3CC(c4ccccc4)C3)N2C(=O)[C@@H](NC(=O)c2cc3cc(C(F)(F)P(=O)(O)O)ccc3[nH]2)C1 [Compound 100, ((2-(((5S,8S,10aR)-3-acetyl-6-oxo-8-(3-phenylazetidine-1-carbonyl)decahydropyrrolo[1,2-a][1,5]diazocin-5-yl)carbamoyl)-1H-indol-5-yl)difluoromethyl)phosphonic acid] |
| 300 to 3000 nM | 1000 to 10000 nM | CCOc1ccc(N(C)C(=O)[C@@H]2CC[C@@H]3CCN(C(C)=O)C[C@H](NC(=O)c4cc5cc(C(F)(F)P(=O)(O)O)ccc5[nH]4)C(=O)N32)cc1 [Compound 101, ((2-(((5S,8S,10aR)-3-acetyl-8-((4-ethoxyphenyl)(methyl)carbamoyl)-6-oxodecahydropyrrolo[1,2-a][1,5]diazocin-5-yl)carbamoyl)-1H-indol-5-yl)difluoromethyl)phosphonic acid] |
| 300 to 3000 nM | 1000 to 10000 nM | CC(=O)N1CC[C@H]2CC[C@@H](C(=O)N(C)c3ccc(OCCN(C)C)cc3)N2C(=O)[C@@H](NC(=O)c2cc3cc(C(F)(F)P(=O)(O)O)ccc3[nH]2)C1 [Compound 102, ((2-(((5S,8S,10aR)-3-acetyl-8-((4-(2-(dimethylamino)ethoxy)phenyl)(methyl)carbamoyl)-6-oxodecahydropyrrolo[1,2-a][1,5]diazocin-5-yl)carbamoyl)-1H-indol-5-yl)difluoromethyl)phosphonic acid] |
| 3000 to 30000 nM | 1000 to 10000 nM | CC(=O)N1CC[C@H]2CC[C@@H](C(=O)Nc3ccc(-n4ccccc4=O)cc3)N2C(=O)[C@@H](NC(=O)c2cc3cc(C(F)(F)P(=O)(O)O)ccc3[nH]2)C1 [Compound 103, ((2-(((5S,8S,10aR)-3-acetyl-6-oxo-8-((4-(2-oxopyridin-1(2H)-yl)phenyl)carbamoyl)decahydropyrrolo[1,2-a][1,5]diazocin-5-yl)carbamoyl)-1H-indol-5-yl)difluoromethyl)phosphonic acid] |
| 300 to 3000 nM | 1000 to 10000 nM | CC(=O)N1CC[C@H]2CC[C@@H](C(=O)N3CCC3Cc3ccccc3)N2C(=O)[C@@H](NC(=O)c2cc3cc(C(F)(F)P(=O)(O)O)ccc3[nH]2)C1 (stereo partly drawn) [Compound 104, ((2-(((5S,8S,10aR)-3-acetyl-8-(2-benzylazetidine-1-carbonyl)-6-oxodecahydropyrrolo[1,2-a][1,5]diazocin-5-yl)carbamoyl)-1H-indol-5-yl)difluoromethyl)phosphonic acid] |
| 300 to 3000 nM | 100 to 1000 nM | CC(=O)N1CC[C@H]2CC[C@@H](C(=O)Nc3ccn(-c4ccccc4)c(=O)c3C#N)N2C(=O)[C@@H](NC(=O)c2cc3cc(C(F)(F)P(=O)(O)O)ccc3[nH]2)C1 [Compound 105, ((2-(((5S,8S,10aR)-3-acetyl-8-((3-cyano-2-oxo-1-phenyl-1,2-dihydropyridin-4-yl)carbamoyl)-6-oxodecahydropyrrolo[1,2-a][1,5]diazocin-5-yl)carbamoyl)-1H-indol-5-yl)difluoromethyl)phosphonic acid] |
| 300 to 3000 nM | 1000 to 10000 nM | CC(=O)N1CC[C@H]2CC[C@@H](C(=O)N3CCCC[C@H]3Cc3ccccc3)N2C(=O)[C@@H](NC(=O)c2cc3cc(C(F)(F)P(=O)(O)O)ccc3[nH]2)C1 [Compound 106, ((2-(((5S,8S,10aR)-3-acetyl-8-((S)-2-benzylpiperidine-1-carbonyl)-6-oxodecahydropyrrolo[1,2-a][1,5]diazocin-5-yl)carbamoyl)-1H-indol-5-yl)difluoromethyl)phosphonic acid] |
| ≤ 300 nM | 1000 to 10000 nM | CC(=O)N1CC[C@H]2CC[C@@H](C(=O)N3CCC[C@@H](c4ccccc4)C3)N2C(=O)[C@@H](NC(=O)c2cc3cc(C(F)(F)P(=O)(O)O)ccc3[nH]2)C1 [Compound 107, ((2-(((5S,8S,10aR)-3-acetyl-6-oxo-8-((S)-3-phenylpiperidine-1-carbonyl)decahydropyrrolo[1,2-a][1,5]diazocin-5-yl)carbamoyl)-1H-indol-5-yl)difluoromethyl)phosphonic acid] |
| 300 to 3000 nM | 1000 to 10000 nM | CC(=O)N1CC[C@H]2CC[C@@H](C(=O)N(C)c3ccccc3C#N)N2C(=O)[C@@H](NC(=O)c2cc3cc(C(F)(F)P(=O)(O)O)ccc3[nH]2)C1 [Compound 108, ((2-(((5S,8S,10aR)-3-acetyl-8-((2-cyanophenyl)(methyl)carbamoyl)-6-oxodecahydropyrrolo[1,2-a][1,5]diazocin-5-yl)carbamoyl)-1H-indol-5-yl)difluoromethyl)phosphonic acid] |
| 300 to 3000 nM | 1000 to 10000 nM | CC(=O)N1CC[C@H]2CC[C@@H](C(=O)N(C)c3ccccc3)N2C(=O)[C@@H](NC(=O)c2cc3cc(C(F)(F)P(=O)(O)O)ccc3s2)C1 [Compound 109, ((2-(((5S,8S,10aR)-3-acetyl-8-(methyl(phenyl)carbamoyl)-6-oxodecahydropyrrolo[1,2-a][1,5]diazocin-5-yl)carbamoyl)benzo[b]thiophen-5-yl)difluoromethyl)phosphonic acid] |
| 3000 to 30000 nM | 1000 to 10000 nM | CC(=O)N1CC[C@H]2CC[C@@H](C(=O)N(C)c3ccccc3)N2C(=O)[C@@H](NC(=O)c2cc3cc(C(F)(F)P(=O)(O)O)cnc3s2)C1 [Compound 110, ((2-(((5S,8S,10aR)-3-acetyl-8-(methyl(phenyl)carbamoyl)-6-oxodecahydropyrrolo[1,2-a][1,5]diazocin-5-yl)carbamoyl)thieno[2,3-b]pyridin-5-yl)difluoromethyl)phosphonic acid] |
